Test results as given in PubChem BioAssay AID248 (DTP/NCI, 2004).
Inconclusive results and toxic doses are left out. No stated cut-off is given here; in the data, active means T/C of 150% or more; inactive means T/C below 125%.

System: L1210 leukemia ip in BDF1 mice, survival T/C
Assay: NCI In Vivo Anticancer Drug Screen. Data for tumor model L1210 Leukemia (intraperitoneal) in B6D2F1 (BDF1) mice
Details: endpoint: mean survival time, higher = longer survival
Procedure, shortened: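 Tumor cells were implanted, animals were treated, and survival was followed. The result divides the treated measurement by the vehicle-control measurement.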

[1] = dose: 100.0 mg/kg/injection, schedule: Q04DX003 (ip), vehicle: Klucel (hydroxypropylcellulose) (HPC)
[2] = dose: 200.0 mg/kg/injection, schedule: Q04DX003 (ip), vehicle: Klucel (hydroxypropylcellulose) (HPC)
[3] = dose: 400.0 mg/kg/injection, schedule: Q04DX003 (ip), vehicle: Klucel (hydroxypropylcellulose) (HPC)
[4] = dose: 100.0 mg/kg/injection, schedule: Q01DX009 (ip), vehicle: saline with Tween-80
[5] = dose: 200.0 mg/kg/injection, schedule: Q01DX009 (ip), vehicle: saline with Tween-80
[6] = dose: 400.0 mg/kg/injection, schedule: Q01DX009 (ip), vehicle: saline with Tween-80
[7] = dose: 100.0 mg/kg/injection, schedule: Q01DX009 (ip), vehicle: Klucel (hydroxypropylcellulose) (HPC)
[8] = dose: 200.0 mg/kg/injection, schedule: Q01DX009 (ip), vehicle: Klucel (hydroxypropylcellulose) (HPC)
[9] = dose: 400.0 mg/kg/injection, schedule: Q01DX009 (ip), vehicle: Klucel (hydroxypropylcellulose) (HPC)
[10] = dose: 100.0 mg/kg/injection, schedule: Q01DX001 (ip), vehicle: saline
[11] = dose: 200.0 mg/kg/injection, schedule: Q01DX001 (ip), vehicle: saline
[12] = dose: 400.0 mg/kg/injection, schedule: Q01DX001 (ip), vehicle: saline
[13] = dose: 100.0 mg/kg/injection, schedule: Q01DX001 (ip), vehicle: carboxymethylcellulose (CMC)
[14] = dose: 200.0 mg/kg/injection, schedule: Q01DX001 (ip), vehicle: carboxymethylcellulose (CMC)
[15] = dose: 400.0 mg/kg/injection, schedule: Q01DX001 (ip), vehicle: carboxymethylcellulose (CMC)
[16] = dose: 100.0 mg/kg/injection, schedule: Q04DX002 (ip), vehicle: Klucel (hydroxypropylcellulose) (HPC)
[17] = dose: 200.0 mg/kg/injection, schedule: Q04DX002 (ip), vehicle: Klucel (hydroxypropylcellulose) (HPC)

Measured: T/C

C/C(=N/N(C)C)c1ccccc1
inactive: dose: 100.0 mg/kg/injection, schedule: Q04DX002 (ip), vehicle: saline 97 % of control | [1] 112 % of control | dose: 200.0 mg/kg/injection, schedule: Q04DX002 (ip), vehicle: saline 108 % of control | [2] 95 % of control | dose: 400.0 mg/kg/injection, schedule: Q04DX002 (ip), vehicle: saline 108 % of control | [3] 90 % of control

COc1cc(CCC(=O)O)cc(OC)c1OC
inactive: dose: 100.0 mg/kg/injection, schedule: Q04DX002 (ip), vehicle: saline with Tween-80 116 % of control | dose: 200.0 mg/kg/injection, schedule: Q04DX002 (ip), vehicle: saline with Tween-80 89 % of control | dose: 400.0 mg/kg/injection, schedule: Q04DX002 (ip), vehicle: saline with Tween-80 106 % of control

CN(C)C(=O)Nc1cccc(OC(=O)NC(C)(C)C)c1
inactive: [4] 93 % of control | [5] 87 % of control | [6] 94 % of control

CC(=O)Nc1ccc(S(=O)(=O)Nc2ccc(F)cc2)cc1
inactive: [7] 96 % of control | [8] 98 % of control | [9] 102 % of control

CC[C@H](CC[C@@H](C)C1CC[C@H]2[C@@H]3CCC4=CC(=O)CC[C@]4(C)[C@H]3CC[C@]12C)C(C)C (stereo not given in full)
inactive: [10] 98 % of control | [11] 95 % of control | [12] 97 % of control

O=C1N(c2ccccc2)C(c2ccc([N+](=O)[O-])cc2)C1(c1ccccc1)c1ccccc1 (stereo not given)
inactive: dose: 100.0 mg/kg/injection, schedule: Q04DX003 (ip), vehicle: gum acacia 96 % of control | dose: 200.0 mg/kg/injection, schedule: Q04DX003 (ip), vehicle: gum acacia 89 % of control | dose: 400.0 mg/kg/injection, schedule: Q04DX003 (ip), vehicle: gum acacia 96 % of control

C=CC[P+](CCCC)(CCCC)CCCC
inactive: dose: 6.25 mg/kg/injection, schedule: Q04DX003 (ip), vehicle: saline 102 % of control | dose: 12.5 mg/kg/injection, schedule: Q04DX003 (ip), vehicle: saline 91 % of control

Cc1nc(C)c2c(c1C)-c1ccccc1C2=O
inactive: dose: 50.0 mg/kg/injection, schedule: Q01DX009 (ip), vehicle: other 104 % of control | dose: 50.0 mg/kg/injection, schedule: Q01DX009 (ip), vehicle: saline + alcohol 108 % of control | dose: 100.0 mg/kg/injection, schedule: Q01DX009 (ip), vehicle: other 100 % of control | dose: 100.0 mg/kg/injection, schedule: Q01DX009 (ip), vehicle: saline + alcohol 106 % of control | dose: 100.0 mg/kg/injection, schedule: Q04DX003 (ip), vehicle: saline 102 % of control | dose: 200.0 mg/kg/injection, schedule: Q01DX009 (ip), vehicle: other 100 % of control | dose: 200.0 mg/kg/injection, schedule: Q01DX009 (ip), vehicle: saline + alcohol 108 % of control | dose: 200.0 mg/kg/injection, schedule: Q04DX003 (ip), vehicle: saline 101 % of control | dose: 400.0 mg/kg/injection, schedule: Q01DX009 (ip), vehicle: other 107 % of control | dose: 400.0 mg/kg/injection, schedule: Q01DX009 (ip), vehicle: saline + alcohol 98 % of control | dose: 400.0 mg/kg/injection, schedule: Q04DX003 (ip), vehicle: saline 107 % of control | dose: 500.0 mg/kg/injection, schedule: Q01DX009 (ip), vehicle: other 95 % of control

FC(F)(F)c1ccc(C2=Nc3cccc4cccc(c34)N2)cc1
inactive: dose: 15.0 mg/kg/injection, schedule: Q01DX Z (ip), vehicle: saline 105 % of control | dose: 30.0 mg/kg/injection, schedule: Q01DX Z (ip), vehicle: saline 112 % of control | dose: 60.0 mg/kg/injection, schedule: Q01DX Z (ip), vehicle: saline 110 % of control | dose: 120.0 mg/kg/injection, schedule: Q01DX Z (ip), vehicle: saline 98 % of control | dose: 120.0 mg/kg/injection, schedule: Q01DX Z (oral), vehicle: saline 105 % of control | dose: 240.0 mg/kg/injection, schedule: Q01DX Z (ip), vehicle: saline 97 % of control | dose: 240.0 mg/kg/injection, schedule: Q01DX Z (oral), vehicle: saline 118 % of control | dose: 480.0 mg/kg/injection, schedule: Q01DX Z (ip), vehicle: saline 86 % of control | dose: 480.0 mg/kg/injection, schedule: Q01DX Z (oral), vehicle: saline 106 % of control | dose: 960.0 mg/kg/injection, schedule: Q01DX Z (oral), vehicle: saline 91 % of control

CCOC(=O)CNC(=O)Nc1ccc(S(N)(=O)=O)cc1
inactive: [4] 95 % of control | [5] 96 % of control | [6] 96 % of control

O=C(N/N=C\c1ccccc1O)c1ccco1
inactive: [13] 98 % of control | [14] 95 % of control | [15] 95 % of control

Cc1noc(C)c1CC1(c2ccccc2)CCCCC1=O (stereo not given)
inactive: [7] 93 % of control | [8] 95 % of control | [9] 93 % of control

CCN(CC)c1ccc(-c2cc(NS(=O)(=O)c3ccccc3)ccc2NS(=O)(=O)c2ccccc2)cc1
inactive: dose: 100.0 mg/kg/injection, schedule: Q01DX001 (ip), vehicle: Klucel (hydroxypropylcellulose) (HPC) 95 % of control

COc1cc(/C=N\NC(=O)c2cccc(Cl)c2)ccc1N(CCCl)CCCl
inactive: dose: 50.0 mg/kg/injection, schedule: Q01DX001 (ip), vehicle: carboxymethylcellulose (CMC) 100 % of control | [13] 103 % of control | [14] 105 % of control | [15] 103 % of control

C=CCSc1nc(N)nc2c1nc(SCC=C)n2C1OC(CO)C(O)C1O (stereo not given)
inactive: dose: 50.0 mg/kg/injection, schedule: Q01DX005 (ip), vehicle: saline 93 % of control | dose: 100.0 mg/kg/injection, schedule: Q01DX005 (ip), vehicle: saline 102 % of control | dose: 200.0 mg/kg/injection, schedule: Q01DX005 (ip), vehicle: saline 100 % of control

CCOc1ccc(/C=N\NC(=O)c2ccco2)cc1OCC
inactive: [13] 93 % of control | [14] 95 % of control | [15] 97 % of control

CC(=O)CCN1C(=O)c2ccccc2C1=O
inactive: [7] 100 % of control | [1] 101 % of control | [8] 104 % of control | [2] 90 % of control | [9] 97 % of control | [3] 96 % of control

CC(C)OC(=O)Nc1ccccc1
inactive: [7] 93 % of control | [16] 102 % of control | [8] 93 % of control | [17] 112 % of control | [9] 110 % of control | dose: 400.0 mg/kg/injection, schedule: Q04DX002 (ip), vehicle: Klucel (hydroxypropylcellulose) (HPC) 115 % of control

CCN(C(=O)Nc1ccc(SC)cc1)c1ccccc1
inactive: [7] 103 % of control | [8] 108 % of control

Cc1cccc(NC(=S)N2CCOCC2)c1
inactive: dose: 87.5 mg/kg/injection, schedule: Q01DX009 (ip), vehicle: Klucel (hydroxypropylcellulose) (HPC) 110 % of control | dose: 175.0 mg/kg/injection, schedule: Q01DX009 (ip), vehicle: Klucel (hydroxypropylcellulose) (HPC) 100 % of control | dose: 350.0 mg/kg/injection, schedule: Q01DX009 (ip), vehicle: Klucel (hydroxypropylcellulose) (HPC) 108 % of control

CC12CCCCC1CC/C(=C\c1ccc(Cl)cc1)C2=O (stereo not given)
inactive: [10] 114 % of control | [11] 95 % of control | [12] 92 % of control

O=c1c(N=Nc2ccc(Cl)cc2)c(O)n(-c2ccccc2)c(=S)n1-c1ccccc1
inactive: dose: 37.5 mg/kg/injection, schedule: Q01DX001 (ip), vehicle: other 94 % of control | dose: 75.0 mg/kg/injection, schedule: Q01DX001 (ip), vehicle: other 107 % of control | dose: 150.0 mg/kg/injection, schedule: Q01DX001 (ip), vehicle: other 96 % of control

Cc1nonc1-c1nc(SCC(=O)NN)n[nH]1
inactive: dose: 25.0 mg/kg/injection, schedule: Q04DX002 (ip), vehicle: Klucel (hydroxypropylcellulose) (HPC) 102 % of control | dose: 50.0 mg/kg/injection, schedule: Q04DX002 (ip), vehicle: Klucel (hydroxypropylcellulose) (HPC) 98 % of control

O=C(/C=C/c1ccc([N+](=O)[O-])cc1)Nc1cccc(S(=O)(=O)F)c1
inactive: [10] 107 % of control | [11] 112 % of control | [12] 101 % of control

C=C1CC(c2ccc(S(=O)(=O)N3CCCC3)cc2)OC1=O (stereo not given)
inactive: [16] 95 % of control | [17] 98 % of control
